Results published in patent US20050019372A1, “Modified-fat nutritional products useful preventing or treating obesity” (priority 2001, published 2005).
Like-named read-outs stand apart in the source and are kept apart here.

Tests used:
3T3-L1 cells = test: Fatty acid induced differentiation (cellular TG content, G3PD activity), no MDI; type: cell-based; details: for G3PD / TG: basal medium with insulin 2.5 μg/ml, no MDI, means ± S.E.M., n=3; for Cell loss after extended fatty acid incubation: microscopy, corroborated by DNA analysis; for Time after incubation at which lipid droplets began to appear: undifferentiated cells, not treated with MDI
Protocol: Fatty acid induced differentiation. […] The 5:1 molar ratio of FFA/BSA promotes net transfer of FFA from BSA-binding sites to cells. No MDI treatment was applied to these cultures.
Measurement of total cellular DNA, TG and G3PD activity. […] G3PD was measured by following the disappearance of NADH during enzyme-catalysed dihydroxyacetone phosphate reduction under zero-order conditions.

3T3L1 fat cells = test: TG storage and plasma membrane phospholipid fatty acid composition, oleate/linoleate with octanoate; type: cell-based
Protocol: This reduced the cellular TG storage from 41.5 to 27.0 μg/μgDNA. The fatty acid composition in the plasma membrane phospholipids (FIG. 15) was less drastically affected by exogenous fatty acids than that in the TG fraction (FIG. 14).

3T3-L1 fat cells = test: Basal lipolysis and turnover of esterified fatty acids (glycerol release, NMR, GLC); type: cell-based; details: for 8:0 acyl chains in cellular TG: means ± S.E.M.; for [1-13C]fatty acid remaining esterified in TG: NMR, ±S.E.M.
Protocol: Measurement of basal lipolysis. […] Control cultures were terminated at this time, and cells were homogenated for TG and DNA analysis. After aliquots were taken for these analyses, cellular lipids were extracted for NMR and GLC analysis. Parallel cultures were washed three times with PBS solution and incubated with serum-free DMEM containing 1% BSA, conditions that favour basal lipolysis. At the end of the incubation, media were aspirated and assayed for glycerol (Sigma procedure no. 337A [27]), and the cells were harvested for analysis as described above.
Quantification of ^13C label incorporation into cellular TG from the NMR peak intensity. The ^13C-NMR spectra were obtained at 125 MHz on a Bruker DMX-500 spectrometer with a 5-mm triple resonance probe (Bilerica, Mass., U.S.A.). Other details have been described in our previous reports. The absolute intensities of ^13C═O signals were measured by reference to an internal standard. […] Therefore, the signal intensity from direct incorporation of [1-^13C]octanoate was obtained by subtracting the background signal from control.
Methylation of TG and GLC analysis of fatty acyl composition. The lipid components of cell extracts were separated by TLC (hexane/ethyl ether/acetic acid, 70:30:1). Methylation was performed by incubation in BF3-methanol solution (14%, v/v, BF3 in methanol) at 60° C. for 30 min. The fatty acid methyl ester was extracted into a hexane solution. The hexane solution was dried with anhydrous sodium sulphate. To avoid the evaporation of methyl octanoate, the hexane solution was used directly for GLC study without further condensation. GLC analysis was performed on a Shimuzu 14A gas chromatograph with a Supelco SP™-2380 capillary column with an initial oven temperature of 150° C., final temperature of 240° C., heating rate of 4° C./min, injector temperature of 220° C. and detector temperature of 240° C. Carrier gas (He) was at 50 kPa, make-up carrier gas (He) at 100 kPa, hydrogen gas at 55 kPa and compressed air at 50 kPa. The sample was injected in 1-1.5 μl with splitting rate of 1:25.

3T3-L1 adipocytes [1] = test: 13C-NMR incorporation of [1-13C]FFA into cellular TG; type: cell-based
Protocol: Incubation with [1-^13C]FFA. […] At termination, cells were washed three times with an ice-cold solution (pH 7.4) containing sucrose (250 mM), Tris (10 mM) and 2-mercaptoethanol (1 mM), scraped into the above solution containing additional EDTA (0.2 mM) and homogenized. Aliquots of the homogenate were stored at −80° C. for DNA and TG analysis. Aliquots for glycerol-3-phosphate dehydrogenase (G3PD) analysis were centrifuged at 44000 g for 20 min and the supernatants were stored at −80° C. until analysis. The homogenates were then extracted for lipids for NMR studies as described previously.
Quantification of ^13C label incorporation into cellular TG from the NMR peak intensity. The ^13C-NMR spectra were obtained at 125 MHz on a Bruker DMX-500 spectrometer with a 5-mm triple resonance probe (Bilerica, Mass., U.S.A.). Other details have been described in our previous reports. The absolute intensities of ^13C═O signals were measured by reference to an internal standard. […] For cells incubated with [1-^13C]octanoate, the signals from direct incorporation of [1-^13C]octanoate were less intense than the C═O signals from unlabelled TG (FIG. 1B; signals from unlabelled saturated acyl chains overlapped those of esterified [1-^13C]octanoate, but were generally 30-40% of their unsaturated counterparts in control cultures). Therefore, the signal intensity from direct incorporation of [1-^13C]octanoate was obtained by subtracting the background signal from control. This may not be completely accurate when octanoate incorporation is very limited.

3T3-L1 adipocytes [2] = test: Partitioning of [1-14C]FFA between CO2 production and TG incorporation; type: cell-based; details: for Exogenous fatty acid converted into CO2 / Exogenous fatty acid converted into TG: 60 min, 1 mM fatty acid in 0.2 mM BSA, means ± S.E.M., n=3
Protocol: Partitioning of [1-^14C]FFA between CO2production7 and TG incorporation. 3T3-L1 cells were prepared in T25 culture flasks. […] The incubation was terminated after 60 min. ^14CO2 released from fatty acid oxidation was collected and quantified using a published protocol. The cellular lipids were extracted and separated by TLC. The TG fraction was scraped off and dissolved in Ecosin-A solution for scintillation counting. […] Cellular DNA was measured in parallel cultures.

[3] = 6 h intravenous infusion of octanoic acid, cited from earlier work
[4] = replacement of 20% oleate by octanoate
[5] = After 96 h incubation with DMEM (1% BSA)
[6] = After 96 h incubation with DMEM (1% BSA), n=3
[7] = Before 96 h incubation with DMEM (1% BSA)
[8] = Before 96 h incubation with DMEM (1% BSA), n=3
[9] = after 96-h incubation with DMEM, n=3

## CCCCCCCC(=O)O [Octanoate, octanoate]
3T3-L1 cells; Day 6
  G3PD: 0.09 ± 0.01 nmol/min per μg of DNA
  TG: 0.1 ± 0.02 μg/μg of DNA
3T3-L1 cells; Day 9
  G3PD: 0.2 ± 0.01 nmol/min per μg of DNA
  TG: 0.6 ± 0.04 μg/μg of DNA
3T3-L1 cells
  Cell loss after extended fatty acid incubation: less significant
  Time after incubation at which lipid droplets began to appear: 6 days
3T3L1 fat cells; oleate/linoleate, without or with 20% (wt %) of oleate replaced by octanoate
  Cellular TG storage: 27.0 μg/μgDNA
3T3L1 fat cells; [4]
  Decrease in MUFA in plasma membrane phospholipids: ~15%
  Increase in PUFA in plasma membrane phospholipids: ~20%
  Increase in SFA in plasma membrane phospholipids: ~10%
3T3-L1 fat cells; 96 h, total TG content doubled
  Absolute amount of octanoate remaining in TG, of original amount: about 20%
3T3-L1 fat cells; [5]
  14:0 acyl chains in cellular TG: 3.88 ± 0.21%
  14:1 acyl chains in cellular TG: 5.78 ± 0.11%
  15:0 acyl chains in cellular TG: 1.63 ± 0.17%
  15:1 acyl chains in cellular TG: 1.41 ± 0.09%
  16:0 acyl chains in cellular TG: 24.45 ± 0.03%
  16:1 acyl chains in cellular TG: 47.64 ± 0.34%
  17:0 acyl chains in cellular TG: 0.85 ± 0.096%
  17:1 acyl chains in cellular TG: 4.73 ± 0.12%
  18:0 acyl chains in cellular TG: 0.51 ± 0.16%
  18:1 n9 acyl chains in cellular TG: 6.2 ± 0.29%
  18:1 n11 acyl chains in cellular TG: 1.95 ± 0.13%
3T3-L1 fat cells; [6]
  8:0 acyl chains in cellular TG: 0.99 ± 0.05%
3T3-L1 fat cells; [7]
  14:0 acyl chains in cellular TG: 3.74 ± 0.04%
  14:1 acyl chains in cellular TG: 5.56 ± 0.29%
  15:0 acyl chains in cellular TG: 1.43 ± 0.14%
  15:1 acyl chains in cellular TG: 1.4 ± 0.14%
  16:0 acyl chains in cellular TG: 24.62 ± 0.35%
  16:1 acyl chains in cellular TG: 38.61 ± 0.2%
  17:0 acyl chains in cellular TG: 0.9 ± 0.03%
  17:1 acyl chains in cellular TG: 3.89 ± 0.1%
  18:0 acyl chains in cellular TG: 0.49 ± 0.02%
  18:1 n9 acyl chains in cellular TG: 6.69 ± 0.09%
  18:1 n11 acyl chains in cellular TG: 2.34 ± 0.05%
3T3-L1 fat cells; [8]
  8:0 acyl chains in cellular TG: 10.33 ± 0.3%
3T3-L1 fat cells; [9]
  [1-13C]fatty acid remaining esterified in TG: About 21±1.2%
  Proportion of octanoate in total stored fatty acids: about 1±0.1%
3T3-L1 fat cells; before incubation with DMEM, n=3
  Octanoate incorporation, share of total acyl composition: 10±0.9%
3T3-L1 adipocytes [1]; 2.0 = random access to the three glycerol carbons
  Peak intensity ratio TG(1,3)/TG(2): higher than 2.0
3T3-L1 adipocytes [1]; converted to a molar scale
  Octanoate share of total acyl chains stored, molar scale: 20%
3T3-L1 adipocytes [1]; detected by 13C-NMR
  Amount partitioned into de novo synthesis of LCFA: less than 16%
3T3-L1 adipocytes [1]; fat cells
  Saturated octanoate incorporation, share of total fatty acids stored: about 10%
3T3-L1 adipocytes [1]; within a 24-h period
  Time at which accumulation into TG reached a plateau: 7 h
3T3-L1 adipocytes [2]; 8 vs 18 CO2 per acyl chain
  Actual amount of CO2 produced from octanoate relative to exogenous oleate: about 3 fold
3T3-L1 adipocytes [2]
  Exogenous fatty acid converted into CO2: 8.4 ± 1.2 nmol/h per μg of DNA
  Exogenous fatty acid converted into TG: 0.9 ± 0.1 nmol/h per μg of DNA
[3]; fasted rats
  Octanoate recovered as CO2: ≤ 90%
[3]; fed rats
  Octanoate recovered as CO2: up to 82%

## CCCCCCCC/C=C\CCCCCCCC(=O)O [Oleate, oleate, reference compound]
3T3-L1 cells; Day 6
  G3PD: 0.45 ± 0.02 nmol/min per μg of DNA
  TG: 1.7 ± 0.2 μg/μg of DNA
3T3-L1 cells; Day 9
  G3PD: 1.7 ± 0.1 nmol/min per μg of DNA
  TG: 5.1 ± 0.3 μg/μg of DNA
3T3-L1 cells
  Cell loss after extended fatty acid incubation: ~20%
  Time after incubation at which lipid droplets began to appear: 3 days
3T3-L1 cells; oleate-treated cells
  Oleate share of accumulated TG: > 80%
3T3-L1 fat cells; [5]
  14:0 acyl chains in cellular TG: 3.28 ± 0.02%
  14:1 acyl chains in cellular TG: 5.48 ± 0.03%
  15:0 acyl chains in cellular TG: 1.36 ± 0.02%
  15:1 acyl chains in cellular TG: 1.24 ± 0.09%
  16:0 acyl chains in cellular TG: 23.65 ± 0.03%
  16:1 acyl chains in cellular TG: 38.65 ± 0.2%
  17:0 acyl chains in cellular TG: 0.75 ± 0.03%
  17:1 acyl chains in cellular TG: 3.98 ± 0.07%
  18:0 acyl chains in cellular TG: 0.41 ± 0.02%
  18:1 n9 acyl chains in cellular TG: 19.71 ± 0.02%
  18:1 n11 acyl chains in cellular TG: 1.51 ± 0.12%
3T3-L1 fat cells; [6]
  8:0 acyl chains in cellular TG: 0%
3T3-L1 fat cells; [7]
  14:0 acyl chains in cellular TG: 2.84 ± 0.09%
  14:1 acyl chains in cellular TG: 4.75 ± 0.08%
  15:1 acyl chains in cellular TG: 0.81 ± 0.01%
  16:0 acyl chains in cellular TG: 20.01 ± 0.36%
  16:1 acyl chains in cellular TG: 27.34 ± 0.29%
  17:0 acyl chains in cellular TG: 0.82 ± 0.03%
  17:1 acyl chains in cellular TG: 3.31 ± 0.26%
  18:0 acyl chains in cellular TG: 0.38 ± 0.04%
  18:1 n9 acyl chains in cellular TG: 36.4 ± 0.4%
  18:1 n11 acyl chains in cellular TG: 1.35 ± 0.07%
3T3-L1 fat cells; [8]
  8:0 acyl chains in cellular TG: 0%
3T3-L1 fat cells; after 96-h incubation with DMEM, GLC
  Decline of proportion of oleate in cellular TG: 50%
3T3-L1 fat cells; [9]
  [1-13C]fatty acid remaining esterified in TG: over 99±3.3%
3T3-L1 adipocytes [2]
  Exogenous fatty acid converted into CO2: 0.7 ± 0.1 nmol/h per μg of DNA
  Exogenous fatty acid converted into TG: 7.6 ± 0.8 nmol/h per μg of DNA
